# From patent US20220289794A1, “SYNTHETIC ANTIMICROBIAL PEPTIDES” (priority 2019, published 2022)
# Like-named read-outs stand apart in the source and are kept apart here. Non-standard residues stand in square brackets, D forms with d. Residues, ends and D or L forms follow the SMILES beside them. Dip = N[C@H](C(=O)O)C(c1ccccc1)c1ccccc1
# Key:
# B. subtilis (ATCC-6633) = assay: Broad-spectrum activity against Gram-Positive bacteria (MIC); type: cell-based; parameters: unit not given here
# E. coli (ATCC BAA-2452) = assay: Broad-spectrum activity against Gram-Negative bacteria (MIC); type: cell-based; details: Table 16, Gram-negative panel
# B. cereus (ATCC-13061) = assay: Broad-spectrum activity against Gram-Positive bacteria (MIC); type: cell-based; parameters: unit not given here
# [1] = system: A. baumannii (ATCC BAA-1605); assay: Broad-spectrum activity against Gram-Negative bacteria (MIC); type: cell-based; details: Table 16, Gram-negative panel
# [2] = system: P. aeruginosa (ATCC 10145); assay: as above; type: cell-based; details: Table 16, Gram-negative panel
# [3] = system: P. aeruginosa (ATCC BAA-1744); assay: as above; type: cell-based; details: Table 16, Gram-negative panel
# [4] = system: Methicillin-resistant Staphylococcus aureus MRSA (ATCC BAA-1556)
# [5] = system: Pseudomonas aeruginosa (ATCC 27883)
# [6] = system: Escherichia coli (ATCC 25922)
# [7] = system: Klebsiella pneumoniae (ATCC BAA-1705); details: Table 16, Gram-negative panel
# human red blood cells = system: human red blood cells; parameters: unit not given beside the values
# [8] = system: Enterococcus faecium ATCC 27270; details: E. faecium ATCC 27270
# [9] = system: Enterococcus faecium ATCC 700221; details: E. faecium ATCC 700221
# [10] = system: Klebsiella pneumoniae ATCC 13883; details: Table 16, Gram-negative panel
# [11] = system: Enterococcus faecalis ATCC 29212; details: E. faecalis ATCC 29212
# [12] = system: Enterococcus faecalis ATCC 51575; details: E. faecalis ATCC 51575
# [13] = system: Streptococcus pneumoniae ATCC 49619; details: S. pneumoniae ATCC 49619
# [14] = system: Streptococcus pneumoniae ATCC 51938; details: S. pneumoniae ATCC 51938
Molecule,Broad-spectrum activity B. subtilis (ATCC-6633) (B. subtilis (ATCC-6633)),MIC E. coli (ATCC BAA-2452) (E. coli (ATCC BAA-2452)),Broad-spectrum activity B. cereus (ATCC-13061) (B. cereus (ATCC-13061)),MIC A. baumannii (ATCC BAA-1605) [1],MIC P. aeruginosa (ATCC 10145) [2],MIC P. aeruginosa (ATCC BAA-1744) [3],MIC MRSA ATCC BAA-1556 ([4]; ATCC BAA-1556),MIC S. aureus ATCC 29213 (S. aureus ATCC 29213; ATCC 29213),MIC P. aeruginosa ATCC 27883 ([5]; ATCC 27883),MIC E. coli ATCC 25922 ([6]; ATCC 25922),MIC K. pneumonia (ATCC BAA-1705) [7],HC50 (human red blood cells),Broad-spectrum activity E. faecium (ATCC 27270) [8],Broad-spectrum activity E. faecium (ATCC 700221) [9],MIC K. pneumonia (ATCC 13883) [10],Broad-spectrum activity E. faecalis (ATCC 29212) [11],Broad-spectrum activity E. faecalis (ATCC 51575) [12],Broad-spectrum activity S. pneumoniae (ATCC 49619) [13],Broad-spectrum activity S. pneumoniae (ATCC 51938) [14],other results
"N=C(N)NCCC[C@@H]1NC(=O)[C@H](CCCNC(=N)N)NC(=O)[C@H](C(c2ccccc2)c2ccccc2)NC(=O)[C@H](C(c2ccccc2)c2ccccc2)NC(=O)[C@H](C(c2ccccc2)c2ccccc2)NC(=O)[C@H](CCCNC(=N)N)NC1=O [IFX-002, c[Arg-Arg-Arg-Dip-Dip-Dip]] (cyclo([Dip][Dip][Dip]RRR))",6.2,25 µg/mL,12.5,25 µg/mL,50 µg/mL,25 µg/mL,3.1 µg/mL,3.1 µg/mL,12.5 µg/mL,12.5 µg/mL,12.5 µg/mL,205,6.2,6.2,50 µg/mL,12.5,12.5,50,25,–
"N=C(N)NCCC[C@@H]1NC(=O)[C@H](CCCNC(=N)N)NC(=O)[C@H](CCCNC(=N)N)NC(=O)[C@H](C(c2ccccc2)c2ccccc2)NC(=O)[C@H](C(c2ccccc2)c2ccccc2)NC(=O)[C@H](C(c2ccccc2)c2ccccc2)NC(=O)[C@H](CCCNC(=N)N)NC1=O [IFX-008, c[Arg-Arg-Arg-Arg-Dip-Dip-Dip]] (cyclo(RRRR[Dip][Dip][Dip]))",1.5,6.2 µg/mL,6.2,12.5 µg/mL,25 µg/mL,12.5 µg/mL,1.5 µg/mL,1.5 µg/mL,12.5 µg/mL,12.5 µg/mL,12.5 µg/mL,190,3.1,1.5,50 µg/mL,6.2,12.5,25,12.5,–
"N=C(N)NCCC[C@@H]1NC(=O)[C@H](CCCNC(=N)N)NC(=O)[C@H](C(c2ccccc2)c2ccccc2)NC(=O)[C@H](C(c2ccccc2)c2ccccc2)NC(=O)[C@H](CCCNC(=N)N)NC(=O)[C@H](CCCNC(=N)N)NC(=O)[C@H](C(c2ccccc2)c2ccccc2)NC1=O [IFX-016, c[Arg-Dip-Arg-Arg-Dip-Dip-Arg]] (cyclo(R[Dip]RR[Dip][Dip]R))",1.5,12.5 µg/mL,6.2,12.5 µg/mL,25 µg/mL,12.5 µg/mL,6.2 µg/mL,6.2 µg/mL,50 µg/mL,>100 µg/mL,25 µg/mL,310,3.1,1.5,50 µg/mL,6.2,12.5,25,12.5,–
"N=C(N)NCCC[C@@H]1NC(=O)[C@H](CCCNC(=N)N)NC(=O)[C@H](CCCNC(=N)N)NC(=O)[C@H](C(c2ccccc2)c2ccccc2)NC(=O)[C@H](C(c2ccccc2)c2ccccc2)NC(=O)[C@H](Cc2c[nH]c3ccccc23)NC1=O [IFX-020, c[Arg-Arg-Arg-Trp-Dip-Dip]] (cyclo([Dip][Dip]RRRW))",1.5,6.2 µg/mL,3.1,25 µg/mL,25 µg/mL,12.5 µg/mL,–,–,–,–,12.5 µg/mL,180,3.1,1.5,50 µg/mL,6.2,12.5,25,12.5,–
"N=C(N)NCCC[C@@H]1NC(=O)[C@H](CCCNC(=N)N)NC(=O)[C@H](C(c2ccccc2)c2ccccc2)NC(=O)[C@H](Cc2c[nH]c3ccccc23)NC(=O)[C@H](C(c2ccccc2)c2ccccc2)NC(=O)[C@H](CCCNC(=N)N)NC1=O [IFX-021, c[Arg-Arg-Arg-Dip-Trp-Dip]] (cyclo([Dip]RRR[Dip]W))",3.1,12.5 µg/mL,6.2,25 µg/mL,50 µg/mL,25 µg/mL,–,–,–,–,12.5 µg/mL,260,6.2,3.1,> 50 µg/mL,12.5,12.5,50,25,–
c[arg-arg-arg-arg-dip-trp-dip] [IFX-101],1.5,25 µg/mL,6.2,12.5 µg/mL,50 µg/mL,25 µg/mL,–,–,–,–,25 µg/mL,–,3.1,12.5,> 50 µg/mL,12.5,12.5,50,12.5,MIC MRSA ATCC BAA-1556 ([4]; MRSA ATCC BAA-1556): 3.1 µg/mL; MIC S. aureus ATCC 29213 (S. aureus ATCC 29213; S. aureus ATCC 29213): 3.1 µg/mL; MIC P. aeruginosa ATCC 27883 ([5]; P. aeruginosa ATCC 27883): 25 µg/mL; MIC E. coli ATCC 25922 ([6]; E. coli ATCC 25922): 12.5 µg/mL
